Consider 4 compounds from ChEMBL document CHEMBL1201862, “PubChem BioAssay data set” (2004).

SMILES strings stand for the structures. Calls of active or inactive are those of the source.

A word on the IC50: it is the concentration needed to halve the response being measured. The term AC50 denotes the midpoint of the concentration-response curve, whichever way the signal moves. By EC50 is commonly meant the concentration at which the effect is half-maximal.

In one experiment the target is Protein Rev (Human immunodeficiency virus type 1 group M subtype B (isolate WMJ22)(HIV-1), UniProt P05866). The experiment in a line: inhibitors of Rev protein–RRE RNA complex – biochemical, protein-RNA interaction, dose response (AID 842). Also noted: species or system Human immunodeficiency virus 1.
Sequence of Protein Rev (P05866 whole entry): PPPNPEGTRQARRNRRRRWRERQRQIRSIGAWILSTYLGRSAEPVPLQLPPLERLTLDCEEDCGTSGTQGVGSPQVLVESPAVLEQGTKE
In the next experiment the target is Cytochrome P450 2C9 (Homo sapiens, UniProt P11712). The conditions noted are these: Potency.
Sequence of Cytochrome P450 2C9 (P11712 whole entry): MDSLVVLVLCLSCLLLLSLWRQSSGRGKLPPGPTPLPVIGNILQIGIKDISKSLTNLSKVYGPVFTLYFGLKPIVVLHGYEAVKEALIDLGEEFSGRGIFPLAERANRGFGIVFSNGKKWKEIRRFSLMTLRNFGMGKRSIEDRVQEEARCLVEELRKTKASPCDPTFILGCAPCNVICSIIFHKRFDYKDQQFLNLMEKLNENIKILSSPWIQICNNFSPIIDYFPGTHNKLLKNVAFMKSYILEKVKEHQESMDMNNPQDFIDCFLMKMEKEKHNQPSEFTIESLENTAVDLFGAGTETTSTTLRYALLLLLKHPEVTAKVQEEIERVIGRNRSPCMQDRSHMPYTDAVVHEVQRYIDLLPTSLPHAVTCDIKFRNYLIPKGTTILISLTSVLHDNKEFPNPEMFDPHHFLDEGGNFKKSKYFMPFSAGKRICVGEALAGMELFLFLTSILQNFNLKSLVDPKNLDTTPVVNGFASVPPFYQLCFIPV
The target of experiment [1] is Sphingosine 1-phosphate receptor 1 (Homo sapiens, UniProt P21453). In kind it is functional.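 Also: Tango beta-arrestin reporter U2OS cells stimulated with S1P near its EC80; inhibitor potency meaning antagonism of receptor activation by the natural agonist.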
Sequence of Sphingosine 1-phosphate receptor 1 (P21453 whole entry): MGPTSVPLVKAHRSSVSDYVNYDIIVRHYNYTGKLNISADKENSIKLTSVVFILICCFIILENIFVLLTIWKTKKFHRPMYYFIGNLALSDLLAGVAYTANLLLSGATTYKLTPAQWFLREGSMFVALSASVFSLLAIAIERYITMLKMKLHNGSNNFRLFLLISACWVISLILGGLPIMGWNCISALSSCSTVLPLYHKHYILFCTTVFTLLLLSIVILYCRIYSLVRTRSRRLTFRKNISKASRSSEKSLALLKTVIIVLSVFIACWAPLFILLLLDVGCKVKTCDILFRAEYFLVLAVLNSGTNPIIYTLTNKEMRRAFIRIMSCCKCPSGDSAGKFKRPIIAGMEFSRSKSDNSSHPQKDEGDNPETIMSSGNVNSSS
The nature of experiment [2]: viability of HCT116 lacking mutant beta-catenin – cell-based, human colon tumor, dose response (AID 1045).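 Also: HCT116 colon tumor cells with beta catenin knocked out; cells exposed to compound for 60 hours.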 It counts as functional.
Experiment [3] concerns the target T1, Microphthalmia-associated transcription factor (Homo sapiens, UniProt O75030).
T1 sequence (O75030 whole entry): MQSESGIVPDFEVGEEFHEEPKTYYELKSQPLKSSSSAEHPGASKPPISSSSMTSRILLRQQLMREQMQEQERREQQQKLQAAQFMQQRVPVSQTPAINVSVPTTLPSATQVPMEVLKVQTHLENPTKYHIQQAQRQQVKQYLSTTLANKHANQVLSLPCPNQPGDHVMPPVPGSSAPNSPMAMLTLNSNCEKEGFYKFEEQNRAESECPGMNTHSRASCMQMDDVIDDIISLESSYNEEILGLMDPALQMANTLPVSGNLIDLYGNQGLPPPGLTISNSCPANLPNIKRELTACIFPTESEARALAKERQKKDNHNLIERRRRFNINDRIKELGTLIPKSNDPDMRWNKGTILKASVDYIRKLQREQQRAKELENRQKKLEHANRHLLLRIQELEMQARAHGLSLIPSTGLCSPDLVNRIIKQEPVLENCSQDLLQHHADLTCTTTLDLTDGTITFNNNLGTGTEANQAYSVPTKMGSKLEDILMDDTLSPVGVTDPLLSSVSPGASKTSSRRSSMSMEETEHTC
Description: reducers of TRPM1 reporter luminescence, concentration series – cell-based, SK-MEL-5, cherry-picked, set 3, MITF inhibitor project, dose response (AID 493073).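 Also: SK-MEL-5 melanoma cells with luciferase driven by the MITF target TRPM1 promoter.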 In kind it is functional.

A short description of experiment [4]: loss of viability in HepG2 cells – cell-based, CellTiter-Glo, cherry-picked, cytotoxicity control for Shn3 inhibitor project, dose response (AID 624134). In kind it is functional. Background: Cellular ATP, detected with luciferase, serves as a proxy for viable cell number.
For experiment [5], the target named is T2, Sphingosine 1-phosphate receptor 4 (Homo sapiens, UniProt O95977).
T2 sequence (O95977 whole entry): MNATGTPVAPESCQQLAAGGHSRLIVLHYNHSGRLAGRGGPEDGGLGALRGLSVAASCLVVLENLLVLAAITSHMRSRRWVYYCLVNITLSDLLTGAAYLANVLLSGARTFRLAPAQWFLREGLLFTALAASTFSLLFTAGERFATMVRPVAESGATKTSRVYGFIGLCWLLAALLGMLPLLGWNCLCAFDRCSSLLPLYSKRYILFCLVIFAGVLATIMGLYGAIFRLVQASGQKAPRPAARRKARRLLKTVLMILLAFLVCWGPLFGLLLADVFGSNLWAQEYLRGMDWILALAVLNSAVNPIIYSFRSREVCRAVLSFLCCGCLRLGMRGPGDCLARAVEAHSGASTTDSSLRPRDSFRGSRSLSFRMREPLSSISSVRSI
Description: Fluorescence dose response cell-based high throughput screening assay for antagonists of the Sphingosine 1-Phosphate Receptor 4 (S1P4). [Related pubchem assays: 1524 (Confirmation in triplicates.), 1510 (Primary screen.)]. It counts as functional.

Experiment [6] concerns the target T3, Heat shock factor protein 1 (Mus musculus, UniProt P38532).
T3 sequence (P38532 whole entry): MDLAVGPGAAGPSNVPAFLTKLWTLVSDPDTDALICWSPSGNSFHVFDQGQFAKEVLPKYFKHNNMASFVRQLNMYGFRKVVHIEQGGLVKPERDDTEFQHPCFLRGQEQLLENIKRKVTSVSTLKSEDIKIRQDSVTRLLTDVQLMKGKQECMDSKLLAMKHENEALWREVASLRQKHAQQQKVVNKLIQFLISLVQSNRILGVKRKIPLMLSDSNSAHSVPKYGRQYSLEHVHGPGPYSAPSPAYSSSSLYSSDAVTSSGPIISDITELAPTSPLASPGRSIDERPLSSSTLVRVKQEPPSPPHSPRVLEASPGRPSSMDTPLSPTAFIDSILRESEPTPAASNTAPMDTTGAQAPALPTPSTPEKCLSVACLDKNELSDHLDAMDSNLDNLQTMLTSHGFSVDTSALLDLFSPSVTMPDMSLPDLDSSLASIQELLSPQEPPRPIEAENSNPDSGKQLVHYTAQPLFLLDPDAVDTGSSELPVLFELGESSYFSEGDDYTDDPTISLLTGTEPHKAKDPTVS
The experiment in a line: decrease of HSF1-responsive luciferase luminescence – cell-based, NIH3T3, dose retest, confirmation (AID 2382).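 Also: NIH3T3 fibroblasts with HSF1-driven luciferase reporter stressed by proteasome inhibitor MG132; luminescence from HSF1-driven luciferase expression after 8 hours of MG132 stress.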 It counts as functional.

Experiment [7] in a line: reduction of Shn3 3'UTR-driven luciferase in osteoblasts – cell-based, Clone20 osteoblasts, firefly luciferase, cherry-picked, dose response (AID 624132).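 Also: firefly luciferase luminescence from reporter carrying the Shn3 3'UTR in osteoblasts.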 In kind it is functional.
Experiment [8] in a line: viability of PTEN-deleted HCT116 cells – cell-based, HCT116 PTEN knockout, dose response (AID 1047).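 Also: HCT116 colon tumor cells with PTEN knocked out; cells exposed to compound for 60 hours before readout; potency for loss of cell viability measured by luminescence.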 In kind it is functional.
Experiment [9] concerns the target Neurotensin receptor type 1 (Homo sapiens, UniProt P30989). It counts as functional.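 Also: Image-based confirmatory dose-response assay measuring agonist activity at NTR1; NTR1-expressing U2OS osteosarcoma cells imaged for beta-arrestin GFP spot formation; agonist potency where compounds increase beta-arrestin recruitment.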
Experiment [10] is described as follows: non-specific 3'UTR reporter inhibition in Clone20-Shn3RL – cell-based, Renilla luciferase, cherry-picked, counter-screen for Shn3 inhibitor project, dose response (AID 624133). In kind it is functional. A general note: A counterscreen serves to expose hits that act by an unwanted route or on another target.
Experiment [11] is described as follows: Luminescence Cell-Based Dose Response HTS to Identify Inhibitors of 5'UTR Stem-Loop Driven Prion Protein mRNA Translation in H4 Neuroglioblastoma Cells. [Related pubchem assays: 1827 (Project Summary), 1813 (Primary HTS)]. It counts as functional.
Experiment [12] is described as follows: Luminescence Cell-Based Dose Confirmation HTS to Identify Inhibitors of Polyadenylation. It counts as functional.
The nature of experiment [13]: luciferase reporter signal suppression in cells – H4 neuroglioma cells, luminescence, dose response (AID 1990). In kind it is functional, cell-based. In general terms: A reporter such as luciferase makes a cellular process visible.
A short description of experiment [14]: mRNA 3' processing disruption, beta-gal signal increase – luminescence, S. cerevisiae SKY197-pL101, dose response (AID 2525). It counts as functional, cell-based.
A short description of experiment [15]: alpha-synuclein stem-loop luciferase translation blockers – H4 neuroglioma cells, luminescence, confirmation (AID 1988). In kind it is functional, cell-based.

Sequence of Neurotensin receptor type 1 (P30989 whole entry): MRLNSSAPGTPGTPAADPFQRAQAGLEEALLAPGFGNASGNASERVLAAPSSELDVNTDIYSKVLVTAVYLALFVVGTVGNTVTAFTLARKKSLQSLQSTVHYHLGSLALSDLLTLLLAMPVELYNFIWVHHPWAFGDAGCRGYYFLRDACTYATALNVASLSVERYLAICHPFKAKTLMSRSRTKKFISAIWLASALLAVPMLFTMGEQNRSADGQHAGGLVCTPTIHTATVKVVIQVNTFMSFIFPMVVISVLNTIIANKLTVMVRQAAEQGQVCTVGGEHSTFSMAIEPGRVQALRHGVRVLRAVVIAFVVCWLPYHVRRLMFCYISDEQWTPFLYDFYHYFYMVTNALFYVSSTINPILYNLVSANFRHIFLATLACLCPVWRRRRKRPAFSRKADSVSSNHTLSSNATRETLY

As to `CC(C)CN=c1cc(-c2ccccc2)oc2ccc(Cl)cc12`, at Protein Rev, the IC50 is reported as > 79.4 µM (not active).

`CC[C@H](C)C(=O)O[C@@H]1CCC=C2C=C[C@H](C)[C@@H](CC[C@H]3C[C@@H](O)CC(=O)O3)[C@H]21`: on Cytochrome P450 2C9, the AC50 is 39.8 µM (inconclusive).

Consider `COc1ccc(Oc2cc(NC(=O)c3nn(C)cc3[N+](=O)[O-])cc([N+](=O)[O-])c2)cc1`, for which the values for the IC50 in experiment [1] and in experiment [5] were 17.4 µM (not active) and 1.08 µM (active), respectively. Further, the EC50 is 0.17 µM (active) in experiment [2], 8.9 µM (inconclusive) in experiment [6], 0.219 µM (active) in experiment [8] and 8.91 µM (active) in experiment [9]. For the same compound, the AC50 is 8.94 µM (active) in [3], 21.1 µM (active) in experiment [4], 0.813 µM (active) in [7] and 5.01 µM (active) in experiment [10].

In the case of `O=C(Oc1c(-c2ccccc2)c(=O)n2c3c(cccc13)CC2)c1cccc([N+](=O)[O-])c1`, the EC50 is 12.3 µM (active) in experiment [11]; 9.78 µM (active) in experiment [12]; 12 µM (active) in experiment [13]; 3.89 µM (active) in [14]; 13 µM (active) in [15].
